US20240085429A1, “ALTERING PROTEIN FUNCTION BY PHARMACOLOGICAL TARGETING OF MEMBRANE DOMAINS” (University of Virginia Patent Foundation, priority 2021, published 2024)
Counter-ions that a name gives are not always drawn.

Legend:
[1] = tested on: GPMVs from HeLa cells; test: Di4 fluorescence lifetime imaging (lipid packing in GPMVs); set-up: species or system human; details: TLCK 1 μM, C6-ceramide 1 μM, MβCD 5 mM; for phase state of GPMVs in FLIM images: room temperature; for average Di4 lifetime: single-phase GPMVs (MβCD: average across all domains), control 2.53±0.06 ns, mean±SD
From the text: It was also of interest how TLCK and C6-ceramide impact other properties of the membrane compared to treatments such as cholesterol depletion that are commonly used to disrupt rafts in cells (Zidovetzki & Levitan, 2007). To test this, we examined their effects on membrane lipid packing and fluidity using a fluorescent reporter of membrane packing, Di-4-[…] (Di4) (Jin et al., 2006; Owen et al., 2006; Sezgin et al., 2014; Levental et al., 2020b; Lorent et al., 2020). As a control, we subjected GPMVs to cholesterol depletion using 5 mM MβCD. The photophysical characteristics of Di4, including its lifetime, are dependent on lipid packing in membranes. In particular, a lower Di4 lifetime is indicative of loose packing and a more fluid membrane environment whereas higher Di4 lifetimes point to a less fluid membranes and tighter lipid packing. […] The phase separated vesicles were characterized by two populations of lifetimes, corresponding to the Lo phase (higher lifetime) and Ld phase (lower lifetime) (FIGS. 11A-11F).
GPMVs were prepared as previously described by Sezgin, E, et al., Nat Protoc 2012, 7 (6), 1042-51. In brief, HeLa cells were washed twice with GPMV buffer (2 mM CaCl2)/10 mM HEPES/0.15 M NaCl, pH 7.4), then washed twice with GPMV active buffer (GPMV buffer containing 25 mM formaldehyde and 2 mM DTT). Cells were then incubated with GPMV active buffer for 1-2 hours at 37° C. with shaking at 90-95 RPM. The GPMV-containing supernatant was decanted into a centrifuge tube and GPMVs were allowed to settle for 1 h. Aliquots of GPMVs (100 μL) were pipetted from the bottom of the Eppendorf tube into separate tubes and treated with DMSO (0.1%), 1 μM TLCK, 1 μM C6-ceramide or 5 mM MbCD. After 5 min, Di 4 […] (Di4) (Thermo Scientific) was added to a final concentration of […] from a stock solution of 1 mg/mL Di4 in ethanol. The GPMVs were then sandwiched between two coverslips coated with 1 mg/mL bovine serum albumin (BSA) solution and allowed to incubate for an additional 20 min prior to lifetime measurements.
Di4 lifetime images were performed on a Leica TCS SP8 system comprising a Leica DMi8 inverted scanning confocal microscope with time-correlated single photon counting (TC-SPC) system and an 80 MHz-pulsed supercontinuum white light laser which allows continuously tunable excitation in the visible range coupled with filter-free detection. Samples were imaged using an HC PL APO CS2 63X/1.20 water objective. Di4 was excited at 488 nm and the emission was collected in the 550-800 nm range. The photon count rate was kept under 0.5 photons per laser pulse by adjusting the laser power, and sufficient frames were cumulatively acquired to obtain at least 100 photons per pixel. The fluorescence decay curves were fit with a bi-exponential re-convolution function adjusted to the instrument response function, and the average intensity-weighted lifetime was calculated for individual vesicles or area of interest and represented in the FLIM images as Di4 lifetime. Data are reported from two independent experiments. Statistical analyses were performed using GraphPad Prism 9.3.0.

[2] = tested on: GPMVs derived from HeLa cells; test: Ten-point dose response of re-ordered hits in GPMVs; set-up: species or system human; details: for percentage of phase separated vesicles as a function of increasing concentration: freshly made reordered stocks
Procedure: Compounds identified in the initial screens as potential hits were re-ordered and their identity verified by mass spectrometry by the Vanderbilt Chemical Synthesis Core. Ten-point dose response curves using ˜1:2 serial dilutions were generated producing a range of final concentration of 30 nM to […] and backfilled to yield equivalent concentrations of DMSO. Data were collected in duplicate for each concentration. Two independent dose response experiments were performed.

CCCCCCCCCCCCC/C=C/[C@@H](O)[C@H](CO)NC(=O)CCCCC [C6 Ceramide (d18:1/6:0)]
phase state of GPMVs in FLIM images [1]: contained a single membrane phase
average Di4 lifetime [1]: 2.53±0.11 ns
effect on phase preference of NBD-DSPE (Pordered) versus concentration [2]: dose-dependent
percentage of phase separated vesicles as a function of increasing concentration [2]: opposite effect

Cc1ccc(S(=O)(=O)N[C@@H](CCCCN)C(=O)CCl)cc1 [TLCK hydrochloride, Nα-Tosyl-Lys Chloromethyl Ketone]
phase state of GPMVs in FLIM images [1]: mixture of phase separated
average Di4 lifetime [1]: 2.43±0.06 ns
effect on phase preference of NBD-DSPE (Pordered) versus concentration [2]: dose-dependent
percentage of phase separated vesicles as a function of increasing concentration [2]: systematically increased
